According to publication PMC5838106, “Cathelicidin promotes inflammation by enabling binding of self-RNA to cell surface scavenger receptors” (Scientific Reports, 2018):
Where no end group is shown, it is not given here.

Experiments:
SR-B1 = biological target: T1, SR-B1 (Homo sapiens, UniProt Q8WTV0); experiment: Immunofluorescence localisation of U1 RNA with SR-B1; format: cell-based; conditions: NHEKs, 4 °C, 10 minutes with U1 RNA and peptide
T1 construct: endogenous in cells; host or cells: NHEK (primary neonatal human epidermal keratinocytes)
T1 sequence (Q8WTV0 1-509 isoform Q8WTV0-2): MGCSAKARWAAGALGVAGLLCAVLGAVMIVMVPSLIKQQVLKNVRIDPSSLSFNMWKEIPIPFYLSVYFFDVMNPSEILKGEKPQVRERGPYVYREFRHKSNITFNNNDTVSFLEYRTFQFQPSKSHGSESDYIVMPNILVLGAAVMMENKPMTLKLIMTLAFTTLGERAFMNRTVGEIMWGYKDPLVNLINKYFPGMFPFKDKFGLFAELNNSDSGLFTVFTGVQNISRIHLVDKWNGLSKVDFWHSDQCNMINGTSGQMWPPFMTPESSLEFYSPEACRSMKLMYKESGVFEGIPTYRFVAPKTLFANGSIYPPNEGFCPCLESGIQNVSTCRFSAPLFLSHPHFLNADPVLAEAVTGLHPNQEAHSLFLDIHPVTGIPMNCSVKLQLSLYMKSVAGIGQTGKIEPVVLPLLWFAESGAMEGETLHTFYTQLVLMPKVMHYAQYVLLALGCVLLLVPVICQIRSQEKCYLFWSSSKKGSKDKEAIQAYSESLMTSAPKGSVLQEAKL
Experimental: NHEKs were grown on 8-well chamber slides (Thermofisher Scientific). After indicated treatments, cells were fixed in 4% paraformaldehyde (PFA) (Thermofisher Scientific) for 10 minutes and blocked with 3% bovine serum albumin, 0.2 M Glycine (Sigma) with or without 1 mg/mL saponin (Sigma) prior to incubating with primary antibodies followed by appropriate 488- or 568-coupled secondary antibodies, or 488-streptavidin conjugate. Nuclei were counterstained with DAPI. All images were taken with an Olympus BX41 microscope (widefield), Zeiss LSM510 confocal microscope, or Nikon A1R Confocal STORM microscope as indicated.
Figure S3. a) NHEKs cultured at 4 °C for 10 minutes with U1 RNA and cathelicidin peptide. […]
RNA. NHEKs were cultured with various cathelicidin peptides (2.5 µM) for 10 minutes, then with biotinylated U1 RNA (2.5 µg/mL) at 4 °C for 1 hour before physical proximity of SR-A6 and U1 RNA was determined using a fluorescence-based PLA that produces a red fluorescent signal. […] PMA-treated THP1 were cultured with various cathelicidin peptides (3 µM) for 10 minutes, then with biotinylated U1 RNA (2.5 µg/mL) at 4 °C for 1 hour before physical proximity of U1 RNA and scavenger receptors was determined using a fluorescence-based PLA, each count is PLA complexes observed in 5 visual fields. f) NHEKs cultured at 37 °C that were stained immediately after or after 5 […]

NHEKs = experiment: Cytokine mRNA expression in NHEKs stimulated with cathelicidin peptide and dsRNA (quantitative real-time PCR); format: cell-based, human; conditions: for capacity to enable U1 RNA to amplify IFN-β1 or IL-6 expression: NHEKs, peptide 2.5 μM 10 minutes, then U1 RNA 2.5 μg/mL 6 hours, n = 3
Experimental: Figure 1 Inflammatory activity of cathelicidin can be dissociated from antimicrobial function (a) Transcriptomic analysis by RNASeq of primary cultures of normal human epidermal keratinocytes (NHEKs) treated with LL37 (2.5 μM) with or without U1 RNA (2.5 μg/mL) for 24 hours. Shown are gene sets induced > 2 fold over vehicle, and after treatment with LL37, U1 RNA, or the combination of LL37 + U1 RNA. (b) Gene Ontology analysis of gene sets from (a). The number of genes related to each biological process is indicated in parentheses. (c) Amino acid sequence of synthetic cathelicidin peptides used in this study. (d) Antimicrobial assay of cathelicidin peptides against group A streptococcus (GAS). GAS were incubated with various concentrations of each peptide (0–25 μM) for 6 hours, then surviving colonies counted after plating on Todd Hewitt Broth gel. (e) IFN-β1 mRNA abundance and (f) IL-6 mRNA abundance in NHEKs after treatment with cathelicidin peptides (2.5 μM) for 10 minutes, then stimulated with U1 RNA (2.5 μg/mL) for a further 6 hours. (n = 3). (g) IFN-β1 mRNA abundance and (h) IL-6 mRNA abundance in […] (PMA)-treated THP1 cells after treatment with cathelicidin peptides (3 μM) for 10 minutes, then stimulated with U1 RNA (12.5 μg/mL) overnight. (n = 3). Data presented are from one representative experiment of at least two independent experiments. Error bars are SEM of three biological replicates. *P < 0.05, **P < 0.01, ***P < 0.001 by two-way ANOVA with Bonferroni’s post-hoc test. See also Fig. S1. […]
RNA was isolated from NHEKs using Purelink RNA isolation columns (ThermoFisher Scientific) according to the manufacturer’s instructions. RNA was quantified using a Nanodrop spectrophotometer (ThermoFisher Scientific), and up to 500 ng of RNA was reverse-transcribed using the iScript cDNA synthesis kit (Bio-Rad, Irvine, CA). Quantitative real-time PCR reactions were run on a CFX96 real-time detection system (Bio-Rad) using gene-specific primers and TaqMan probes (ThermoFisher Scientific). […]

LL37
U1 RNA localization with SR-B1 (SR-B1): enabled U1 RNA to localize with SR-B1
capacity to enable U1 RNA to amplify IFN-β1 or IL-6 expression (NHEKs): large responses

LLGDFFRKSKEKIGKEFKRIVQRIKDFLRNLVPR [LL34]
U1 RNA localization with SR-B1 (SR-B1): enabled U1 RNA to localize with SR-B1
capacity to enable U1 RNA to amplify IFN-β1 or IL-6 expression (NHEKs): large responses
capacity to induce IL-6 and IFN-β mRNA (NHEKs; peptide with U1 RNA, keratinocytes): ca. 3000 fold
